Test results reported in patent US20070270393A1, “Methods and compositions for modulation of sleep cycle” (priority 2006, published 2007).
“And” between values parts separate entries of the source, which are not always exact repeats. Identical values can stand only once.

What was measured:
[1] = biological target: T1, glucocorticoid (GR) receptors (Homo sapiens, UniProt P04150); conditions: literature; cited from earlier work
T1 sequence (P04150 1-777): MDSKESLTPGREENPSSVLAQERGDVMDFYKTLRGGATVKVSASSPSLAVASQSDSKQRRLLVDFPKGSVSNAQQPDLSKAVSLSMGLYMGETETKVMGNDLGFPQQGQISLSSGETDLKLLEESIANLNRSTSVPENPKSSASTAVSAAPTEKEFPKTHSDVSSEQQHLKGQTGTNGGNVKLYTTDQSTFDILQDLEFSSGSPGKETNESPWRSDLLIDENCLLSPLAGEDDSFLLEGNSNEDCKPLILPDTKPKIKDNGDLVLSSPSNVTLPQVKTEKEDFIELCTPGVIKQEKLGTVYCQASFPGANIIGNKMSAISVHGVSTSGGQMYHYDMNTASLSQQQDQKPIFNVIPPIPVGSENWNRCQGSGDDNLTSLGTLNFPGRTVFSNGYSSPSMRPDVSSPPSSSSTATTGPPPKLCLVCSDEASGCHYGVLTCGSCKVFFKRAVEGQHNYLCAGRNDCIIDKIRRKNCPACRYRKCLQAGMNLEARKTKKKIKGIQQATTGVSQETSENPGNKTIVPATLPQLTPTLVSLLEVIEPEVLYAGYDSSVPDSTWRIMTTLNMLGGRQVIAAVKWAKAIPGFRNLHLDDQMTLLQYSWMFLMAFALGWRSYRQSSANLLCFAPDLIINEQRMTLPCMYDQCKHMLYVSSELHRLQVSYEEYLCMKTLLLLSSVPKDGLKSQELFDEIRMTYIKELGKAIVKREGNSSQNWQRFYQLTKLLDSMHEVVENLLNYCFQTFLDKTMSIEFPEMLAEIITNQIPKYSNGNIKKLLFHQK

MR and GR = conditions: Reul and de Kloet 1985; cited from earlier work
[2] = system: nocturnal HPA axis activity in healthy controls; assay: Two day repeated measures study of fludrocortisone's acute effects on nocturnal HPA axis activity; type: in vivo, human
Experimental: Nine healthy subjects were recruited from the community via flyers and internet postings. Subjects responding to ads were phone screened to determine if subjects met initial eligibility criteria. Those subjects meeting criteria underwent physical examination, screening labs (complete blood count, comprehensive metabolic panel, urine analysis, urine toxicology screen, TSH, FT4, serum pregnancy test) and EKG. A SCID was performed to rule out Axis I and Axis II DSM-TR pathology. At the time of this analysis and manuscript preparation, 9 subjects have been enrolled. Inclusion criteria were: (1) participants are age 18 to 85 years old with a HAM-D score less than or equal to 5. Exclusion criteria were: (1) personal history of Axis I or Axis II disorders; (2) active medical problems; (3) abuse of drugs or alcohol in the 6 months prior to study; (4) use of additional prescription medications, street drugs or alcohol during the week before the study; (5) currently pregnant or lactating.
This study is a two day repeated measures study of fludrocortisone's acute effects on nocturnal HPA axis activity in healthy controls. Blood samples were taken every 30 minutes, beginning at 1600 to 2400 on Days 1. At 1400 on Day 2, all subjects were given 0.5 mg of fludrocortisone. Blood was then resampled from 1600 to 2400 on Day 2 to assess nocturnal changes in HPA axis activity. Blood sampling was timed in the first half of the night to coincide with the time period of greatest activity of MR.
Group averages, standard deviation and effect sizes are reported. The primary end-points were chosen to be mean cortisol and ACTH from 1600 to 2400 when greatest mineralocorticoid receptor activity is expected. To determine the differential effects of fludrocortisone, data from all subjects are pooled and the average values from 1600 to 2400 are computed. Next, mean values across this time interval are computed before (Time 1) and after (Time 2) fludrocortisone and the effect size for the difference between pooled mean values is computed.

[3] = 0.5 mg fludrocortisone, treatment vs baseline

SMILES: CC#C[C@]1(O)CC[C@H]2[C@@H]3CCC4=CC(=O)CCC4=C3[C@@H](c3ccc(OCCN(C)C)cc3)C[C@@]21C [RU009, 11-beta-(4-dimethyl-aminoethoxyphenyl)-17-alpha-(propynyl-17beta-hydroxy-4,9-estradien-3-one)]
- antagonist of glucocorticoid (GR) receptors [1]: GR antagonist effects

SMILES: C[C@]12CCC(=O)C=C1CC[C@@H]1[C@@H]2[C@@H](O)C[C@@]2(C)[C@H]1CC[C@]2(O)C(=O)CO [cortisol]
- affinity for MR relative to GR (MR and GR): greater affinity for MR than GR

SMILES: C[C@]12CCC(=O)C=C1CC[C@H]1[C@@H]3CC[C@](O)(C(=O)CO)[C@@]3(C)C[C@H](O)[C@@]12F [fludrocortisone]
- Mean ACTH (1600 to 2400), Difference (Tx − Baseline) ([2]; 0.5 mg fludrocortisone at 1400 on Day 2): 5.76 pg/mL
- Mean Cortisol (1600 to 2400), Difference (Tx − Baseline) ([2]; 0.5 mg fludrocortisone at 1400 on Day 2, 9 healthy subjects): 2.19 µg/dL
- Mean Cortisol/ACTH (1600 to 2400), Difference (Tx − Baseline) ([2]; 0.5 mg fludrocortisone, post-hoc analysis): 0.0686 and 0.07
- Mean ACTH (1600 to 2400), Effect Size [2, 3]: 4.46
- Mean Cortisol (1600 to 2400), Effect Size [2, 3]: 1.65
- Mean Cortisol/ACTH (1600 to 2400), Effect Size [2, 3]: 0.92
- Mean ACTH (1600 to 2400), AUC Treatment ([2]; after 0.5 mg fludrocortisone): 13.2 pm/ml
- Mean Cortisol (1600 to 2400), AUC Treatment ([2]; after 0.5 mg fludrocortisone): 1.77 µg/dL
